According to patent US12655107B2 (The United States of America, as represented by the …, priority 2018, dated 2026):
Where two headings read alike, the source gives them in different places.

Legend:
Top1 = target: T1, Top1 (Homo sapiens, UniProt P11387); test: Top1-mediated DNA cleavage assay; type: biochemical
T1 sequence (P11387 1-765): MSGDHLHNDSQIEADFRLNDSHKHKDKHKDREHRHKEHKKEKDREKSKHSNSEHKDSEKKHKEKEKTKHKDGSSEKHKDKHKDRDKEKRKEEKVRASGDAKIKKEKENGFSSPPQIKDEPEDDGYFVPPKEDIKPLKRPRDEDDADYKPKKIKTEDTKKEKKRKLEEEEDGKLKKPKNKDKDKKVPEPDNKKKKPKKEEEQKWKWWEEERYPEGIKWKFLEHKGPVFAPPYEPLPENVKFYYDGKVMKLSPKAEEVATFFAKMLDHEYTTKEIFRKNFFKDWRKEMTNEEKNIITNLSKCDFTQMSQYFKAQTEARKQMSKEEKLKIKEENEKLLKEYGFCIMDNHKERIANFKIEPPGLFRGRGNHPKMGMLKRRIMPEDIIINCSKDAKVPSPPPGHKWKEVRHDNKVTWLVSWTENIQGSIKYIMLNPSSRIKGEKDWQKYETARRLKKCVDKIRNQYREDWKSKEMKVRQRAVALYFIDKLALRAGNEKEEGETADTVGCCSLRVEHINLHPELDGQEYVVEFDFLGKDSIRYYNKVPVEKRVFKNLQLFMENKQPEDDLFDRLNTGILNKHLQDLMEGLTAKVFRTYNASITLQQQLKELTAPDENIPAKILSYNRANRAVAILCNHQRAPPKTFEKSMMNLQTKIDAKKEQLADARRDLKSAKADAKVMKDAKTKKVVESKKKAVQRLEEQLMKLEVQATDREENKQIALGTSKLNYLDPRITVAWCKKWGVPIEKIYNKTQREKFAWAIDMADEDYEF

HCT116 = test: MTT cytotoxicity assay, HCT116; type: cell-based, human; settings: 72 h
Procedure: (§1) Cytotoxicity Assays. […] The cells were incubated with the tested compounds for 72 hours in a five-dose assay ranging from 0.01 to 100 μM concentration. After drug treatments, MTT solution was added to test the percentage growth of tumor cells.
(§2) The compounds were incubated with the cells for 72 hours in a five-dose assay ranging from 0.01 to 100 μM concentration. At the end of the incubation, the MTT solution was added to test the percentage growth of tumor cells.
(§3) For the drug treatment experiments, the cancer cells were treated with the compounds (predissolved in DMSO) at a five-dose assay ranging from 0.01 to 100 μM concentration. […] After 4 h incubation, the formazan crystal formed in the well was dissolved with […] of DMSO for optical density reading at 570 nm. The GI50 value was calculated by nonlinear regression analysis (GraphPad Prism).

DU145 = test: MTT cytotoxicity assay, DU145; type: cell-based, human; settings: 72 h
Procedure: as §1, §2, §3

A549 = test: MTT cytotoxicity assay, A549; type: cell-based, human
Procedure: as §1, §2, §3

MCF-7 = test: MTT cytotoxicity assay, MCF-7; type: cell-based, human; settings: Table 7, read-out: GI50 ± SC (μM) MCF-7
Procedure: as §2, §3

Tdp1 = Tdp1 (Homo sapiens, UniProt Q9NUW8); test: Tdp1 inhibition fluorescence assay; type: biochemical; settings: compounds at 100 μM
Procedure: Tdp Inhibition. […] The compounds were tested at 100 μM concentration. […] Fluorescence assay. […] Tdp1 solution (20 μL/well, 0.02 μL purified Tdp1 (100 nM) in 10 mM Tris-HCl, pH 7.5, 50 mM KCL, I mM EDTA, 1 mM DTT) was dispensed into wells of a white 384-well plate (NEST). The tested compound solution in DMSO (5 μL) was pinned into assay plates and incubated at room temperature for 30 min. […] Tdp percentage inhibition of the tested compounds was calculated by comparing the rate of increase in fluorescence throughout time for the compound-treated wells to that of DMSO control wells.

CCRF-CEM = test: MTT cytotoxicity assay, CCRF-CEM; type: cell-based, human; settings: 72 h, Table 1b
Procedure: as §1, §3

Huh7 = test: MTT cytotoxicity assay, Huh7; type: cell-based, human; settings: Table 1b
Procedure: as §1, §3

[1] = target: T2, Top1-DNA covalent cleavage complexes in HCT116 cells (Homo sapiens, UniProt P11387); test: Immunocomplex of enzyme to DNA (ICE) assay; type: cell-based; settings: HCT116, 25, 50 and 100 μM
T2 construct: endogenous in cells; host or cells: HCT116 (human colon cancer)

[2] = graded relative to CPT at 1 μM, Table 7
[3] = Table 7, read-out: GI50 ± SC (μM) HCT116
[4] = Table 7, read-out: GI50 ± SC (μM) DU145
[5] = 72 h, Table 7, read-out: GI50 ± SC (μM) A-49
[6] = Table 1b, read-out: GI50 (μM) HCT116
[7] = Table 1b, read-out: GI50 (μM) DU145
[8] = 72 h, Table 1b, read-out: GI50 (μM) A549

Tdp1, sequence (Q9NUW8 whole entry): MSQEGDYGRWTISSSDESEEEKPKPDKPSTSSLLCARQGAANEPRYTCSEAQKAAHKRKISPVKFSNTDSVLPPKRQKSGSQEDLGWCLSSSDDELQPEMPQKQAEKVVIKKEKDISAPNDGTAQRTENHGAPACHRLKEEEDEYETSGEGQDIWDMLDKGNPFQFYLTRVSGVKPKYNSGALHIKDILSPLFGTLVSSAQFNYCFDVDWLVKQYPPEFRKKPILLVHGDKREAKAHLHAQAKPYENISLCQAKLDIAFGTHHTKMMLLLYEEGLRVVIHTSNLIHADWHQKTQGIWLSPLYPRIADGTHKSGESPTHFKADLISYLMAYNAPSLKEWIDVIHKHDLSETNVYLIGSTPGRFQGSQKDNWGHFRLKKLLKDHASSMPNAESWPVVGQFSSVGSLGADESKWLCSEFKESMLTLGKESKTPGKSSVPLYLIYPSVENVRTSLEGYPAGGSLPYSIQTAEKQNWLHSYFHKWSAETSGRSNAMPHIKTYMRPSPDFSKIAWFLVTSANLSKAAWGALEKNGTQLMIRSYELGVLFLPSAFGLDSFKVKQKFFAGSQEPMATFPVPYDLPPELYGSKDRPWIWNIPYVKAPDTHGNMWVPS

Molecule | TOP1 inhibition (Top1; [2]) | GI50 (HCT116; [3]) | GI50 (DU145; [4]) | GI50 (A549; [5]) | GI50 (MCF-7; 72 h) | further results
COc1cc2c(=O)n(CCNS(=O)(=O)C3CC3)c3c4cc5c(cc4ccc3c2cc1OC)OCO5 [Compound 58, N-(2-(2,3-dimethoxy-13-oxo-[1,3]dioxolo[4′,5′:4,5]benzo[1,2-c]phenanthridin-12(13H)-yl)ethyl)cyclopropanesulfonamide] | ++ (++, between 50% and 75% activity) | 5.2 ± 0.13 µM | 1.3 ± 0.32 µM | 4.3 ± 0.21 µM | 3 ± 0.63 µM | –
COc1cc2c(=O)n(CCNS(=O)(=O)N3CCCC3)c3c4cc5c(cc4ccc3c2cc1OC)OCO5 [Compound 60, N-(2-(2,3-dimethoxy-13-oxo-[1,3]dioxolo[4′,5′:4,5]benzo[1,2-c]phenanthridin-12(13H)-yl)ethyl)pyrrolidine-1-sulfonamide] | – | 34 ± 1.1 µM | 79 ± 1 µM | 61 ± 0.15 µM | 38 ± 0.78 µM | –
COc1cc2c(=O)n(CCN(C)S(=O)(=O)N3CCCC3)c3c4cc5c(cc4ccc3c2cc1OC)OCO5 [Compound 54, N-(2-(2,3-dimethoxy-13-oxo-[1,3]dioxolo[4,5′:4,5]benzo[1,2-c]phenanthridin-12(13H)-yl)ethyl)-N-methylpyrrolidine-1-sulfonamide] | + (+, between 20% and 50% activity) | 2.5 ± 0.18 µM | 3.1 ± 0.3 µM | 5.3 ± 0.41 µM | 3.8 ± 0.25 µM | –
COc1cc2c(=O)n(CCN(C)S(=O)(=O)C3CC3)c3c4cc5c(cc4ccc3c2cc1OC)OCO5 [Compound 52, N-(2-(2,3-dimethoxy-13-oxo-[1,3]dioxolo[4′,5′:4,5]benzo[1,2-c]phenanthridin-12(13H)-yl)ethyl)-N-methylcyclopropanesulfonanide] | + (+, between 20% and 50% activity) | 7.9 ± 0.15 µM | 10 ± 1.2 µM | 15 ± 1.5 µM | 5.8 ± 0.89 µM | –
COc1cc2c(cc1OC)-c1ccc3cc4c(cc3c1N(CCN1CCCC1)C2)OCO4 [Compound 28a, 2,3-Dimethoxy-12-(2-(pyrrolidin-1-yl)ethyl)-12,13-dihydro-[1,3]dioxolo[4′,5′:4,5]benzo[1,2-c]phenanthrdine] | – | – | – | – | – | TDP1 inhibition (Tdp1): 0%; GI50 (HCT116; [6]): 4.25 ± 3.11 µM; GI50 (CCRF-CEM): 1.25 ± 0.18 µM; GI50 (DU145; [7]): 2.04 ± 0.41 µM; GI50 (A549; [8]): 6.59 ± 1.29 µM; GI50 (Huh7; 72 h): 8.07 ± 1.3 µM
COc1cc2c(=O)n(CCNS(=O)(=O)N(C)C)c3c4cc5c(cc4ccc3c2cc1OC)OCO5 [Compound 59, N-(2-(2,3-dimethoxy-13-oxo-[1,3]dioxolo[4′,5′:4,5]benzo[1,2-c]phenanthridin-12(13H)-yl)ethyl)dimethylamine-1-sulfonamide] | + (+, between 20% and 50% activity) | 30 ± 2.1 µM | 45 ± 1.2 µM | 35 ± 0.14 µM | 21 ± 1 µM | –
CC[C@@]1(O)C(=O)OCc2c1cc1n(c2=O)Cc2cc3ccccc3nc2-1 [Compound 1, camptothecin, reference compound] | ++++ | – | – | – | – | TOP1 inhibition (Top1; semi-quantitative score relative to CPT (1) at 1 μM, tested at 0.1-100 μM): ++++ (++++, equal activity); GI50 (CCRF-CEM; Homo sapiens, CCRF-CEM): 0.007 ± 0.003 µM; GI50 (A549; Homo sapiens, A549, 72 h, Table 7, read-out: GI50 ± SC (μM) A-49): 0.099 ± 0.017 µM; GI50 (Huh7; Homo sapiens, Huh-7, 72 h): 0.099 ± 0.017 µM; GI50 (MCF-7; Homo sapiens, MCF7, 72 h): 0.012 ± 0.002 µM; induction of cellular Top1cc [1]: induced the formation of cellular TOP1 cc in a dose-dependent manner
COc1cc2c(=O)n(CCNP(=O)(OC)OC)c3c4cc5c(cc4ccc3c2cc1OC)OCO5 [Compound 62, Dimethyl(2-(2,3-dimethoxy-13-oxo-[1,3]dioxolo[4′,5′:4,5]benzo[1,2-c]phenanthridin-12(13H)-yl)ethyl)phosphoramidate] | – | 51 ± 1.5 µM | 39 ± 2.2 µM | 41 ± 2 µM | 48 ± 1.9 µM | –
COc1cc2c(=O)n(CCN(C)S(=O)(=O)N3CCOCC3)c3c4cc5c(cc4ccc3c2cc1OC)OCO5 [Compound 55, N-(2-(2,3-dimethoxy-13-oxo-[1,3]dioxolo[4′,5′:4,5]benzo[1,2-c]phenanthridin-12(13H)-yl)ethyl)-N-methylmorpholine-4-sulfonamide] | + (+, between 20% and 50% activity) | 40 ± 1.2 µM | 48 ± 1.2 µM | 35 ± 2.5 µM | 64 ± 0.57 µM | –
N-(2-(2,3-dimethoxy-13-oxo-[1,3]dioxolo[4′,5′:4,5]benzo[1,2-c]phenanthridin-12(13H)-yl)ethyl)-N-methyldiethylamine-1-sulfonamide [Compound 53] | + (+, between 20% and 50% activity) | 0.96 ± 0.04 µM | 15 ± 0.59 µM | 7.9 ± 0.23 µM | 1.5 ± 0.15 µM | –
COc1cc2c(=O)n(C)c3c4cc5c(cc4ccc3c2cc1OC)OCO5 [Compound 6, oxynitidine, reference compound] | – | – | – | – | – | GI50 (HCT116; [6]): 74.8 ± 4.36 µM; GI50 (CCRF-CEM): 26.5 ± 5.41 µM; GI50 (DU145; [7]): 64.2 ± 10.9 µM; GI50 (A549; [8]): 39.4 ± 26.2 µM; GI50 (Huh7; 72 h): > 100 µM
Dimethyl(2-(2,3-dimethoxy-13-oxo-[1,3]dioxolo[4′,5′:4,5]benzo[1,2-c]phe-nanthridin-12(13H)-yl)ethyl)(methyl)phosphoramidate [Compound 56] | ++ (++, between 50% and 75% activity) | 9.2 ± 0.14 µM | 5.3 ± 0.21 µM | 14 ± 1.4 µM | 10 ± 0.54 µM | –
COc1cc2c(=O)n(CCNC(=O)C3CC3)c3c4cc5c(cc4ccc3c2cc1OC)OCO5 [Compound 63, N-(2-(2,3-dimethoxy-13-oxo-[1,3]dioxolo[4,5′:4,5]benzo[1,2-c]phenanthridin-12(13H)-yl)ethyl)cyclopropanecarboxamide] | + (+, between 20% and 50% activity) | 5.3 ± 0.11 µM | 7.8 ± 0.52 µM | 1.3 ± 0.006 µM | 2.2 ± 0.27 µM | –
COc1cc2c(=O)n(CCN(C)S(=O)(=O)C(F)(F)F)c3c4cc5c(cc4ccc3c2cc1OC)OCO5 [Compound 51, N-(2-(2,3-dimethoxy-13-oxo-[1,3]dioxolo[4′5′:4,5]benzo[1,2-c]phenanthridin-12(13H)-yl)ethyl)-1,1,1-trifluoro-N-methylmethanesulfonamide] | – | 86 ± 2.5 µM | 65 ± 1.2 µM | 42 ± 0.98 µM | 35 ± 1.7 µM | –
COc1cc2c(=O)n(CCNS(=O)(=O)N3CCOCC3)c3c4cc5c(cc4ccc3c2cc1OC)OCO5 [Compound 61, N-(2-(2,3-dimethoxy-13-oxo-[1,3]dioxolo[4′,5′:4,5]benzo[1,2-c]phenanthridin-12(13H)-yl)ethyl)morpholine-4-sulfonamide] | ++ (++, between 50% and 75% activity) | 1.1 ± 0.047 µM | 1.6 ± 0.021 µM | 2.9 ± 0.027 µM | 0.89 ± 0.12 µM | –
